Measured values from patent US4808584A, “Quinolinecarboxylic acid derivatives and antibacterial agent containing the same” (Kanebo, Ltd., priority 1987, dated 1989).
≈ marks a conversion by molar mass, not a printed value.

Columns and labels:
[1] = system: methicillin resistant Staphylococcus aureus; assay: Minimum inhibitory concentration against clinically isolated methicillin resistant Staphylococcus aureus; format: cell-based
Description: The compound (B) was dissolved in sterilized distilled water, and ofloxacin in 0.1N aqueous potassium hydroxide, to prepare a solution of 5000 μg/ml in concentration each. The above solutions were then diluted with sterilized distilled water to prepare a standard solution with a concentration of the test compound: 1000 μg/ml each. The test was carried out by a method approved by Japan Society of Chemotherapy (ibidem) to measure minimum inhibitory concentration (MIC) against 54 strains of clinically isolated methicillin resistant Staphylococcus aureus, from which there were calculated a range of MIC (MICrange) of the test compound against these resistant strains, a minimum concentration for inhibiting the growth of the strains by 50% (MIC50) and a minimum concentration for inhibiting the growth of the strains by 90% (MIC90).

[2] = system: bacteria; settings: prior art, U.S. Pat. No. 4,382,892; cited from earlier work
[3] = system: E. coli KC-14; assay: Effect on treatment of infectiousness of the genito-urinary tract; format: in vivo, ICR female mice; settings: Escherichia coli, KC14, 48 h; E. coli KC-14, 5.6×10^5 CFU/mouse into urinary bladder; oral; not more than 10^4 living bacteria/1 g of kidney regarded as effective
Description: 2. Test microorganism and inoculum size E. coli KC-14 (5.6×10^5 CFU/mouse) 3. Method:
A microorganism solution (0.1 ml) prepared in the same manner as described in Experiment 3 was introduced into urinary bladder through urinary tract of ICR female mice (5 weeks age, weighing 20 to 22 g, 5 mice in each group), and then urinary meatus was clasped with clip for 4 hours to infect the animals. After taking off the clip, the compound (B) of the present invention dissolved in sterilized distilled water or ofloxacin suspended in 0.5% aqueous sodium carboxymethyl cellulose solution was orally administered to mice. Two days after the infection, mice kidneys were taken out and weighed, to which PBS (Dulbecco's phosphate buffered saline) was added and the mixture was homogenized. The homogenate was then diluted with PBS and inoculated onto a plate of modified Drigalski Agar (BTB lactose agar "Nissui", made by Nissui Seiyaku K.K., Japan) and cultured at 37° C. for 18 hours. The number of the colonies of infectious bacteria grown on the plate was counted. The number of living bacteria per 1 g of kidney was calculated from the number of colonies and the kidney weight. The living bacteria number/1 g of kidney of not more than 10^4 was regarded as effective and an effective dose for 50% mice (ED50) was calculated by Weil method.

SMILES: CC1COc2c(N3CCN(C)CC3)c(F)cc3c(=O)c(C(=O)O)cn1c23 (racemic) [Ofloxacin, reference compound]
- MIC ([1]; 54 strains of clinically isolated methicillin resistant Staphylococcus aureus): 0.39 to 1.56 µg/mL (≈ 1.08 to 4.32 µM)
- MIC50 ([1]; Staphylococcus aureus, minimum concentration for inhibiting the growth of the strains by 50%, 54 strains): 0.39 µg/mL (≈ 1.08 µM)
- MIC90 ([1]; Staphylococcus aureus, minimum concentration for inhibiting the growth of the strains by 90%, 54 strains): 1.56 µg/mL (≈ 4.32 µM)
- antibacterial activity (in words) [2]: excellent antibacterial activity
- ED50 [3]: 50 mg/kg
